In patent publication US11759445B2, “Use of Rivastigmine in preparation of anti-radiation medicament” (priority 2020, dated 2023):

Tests used:
[1] = test system: C57BL/6 mice; assay: Survival of mice at a lethal dose (10 Gy whole body irradiation) after intraperitoneal medicament; assay type: in vivo, mouse; settings: for influence on the survival time of mice after receiving irradiation: i.p. half an hour before 10 Gy whole body irradiation
Text: 1.2.2 Experiment for Verifying the Survival Rate of Mice at a Lethal Dose
Mice were subjected to 10 Gy whole body irradiation with an X-ray biological irradiator in Department of Medicine having a dose rate of 1.5 Gy/min; and before irradiation, mice were intraperitoneally injected the medicament screened out via an in vitro experiment, and then continuously raised in a temporary storage room of the animal center after irradiation.
4 to 6 week-age C57BL/6 mice were selected as experimental subjects, and divided into control groups and experimental groups, and subjected to 10 Gy whole body irradiation with a dose rate of 1.5 Gy/min; mice in the experimental subjects were respectively intraperitoneally injected the medicaments screened half an hour before irradiation, and the survival time was recorded after irradiation. Among the medicaments, water-soluble Don-H, Pra-C and DL-Pan are dissolved by normal saline, and others were dissolved by 5 g/100 mL DMSO+edible oil. The medicament was prepared into a stock solution having a corresponding concentration according to the volume that 20 g mice were intraperitoneally injected 100 μL medicament.

[2] = test system: crypt stem cells Lgr5+; assay: In vitro medicament screening experiment on crypt stem cells Lgr5+ of mice (GFP fluorescence after 10 Gy irradiation); assay type: cell-based; settings: Mus musculus, light or radiation study, 240 h, 10 μM medicament, GFP fluorescence 10 d after irradiation, read-out: increment of the Lgr5+ stem cells compared with IR groups
Text: 1.2.1 In Vitro Medicament Screening Experiment on Crypt Stem Cells Lgr5^+ of Mice
1) Lgr5-GFP mice were sacrificed by cervical dislocation, and enterocoelia was opened and the whole small intestine was taken out, and then the small intestine was put to a pre-cooled HBSS buffer solution to remove mesentery and adipose tissues as much as possible, and dissected longitudinally to wash out contents of the small intestine.
2) Villi and contents inside the intestinal cavity were scraped by a glass slide, and then the remaining intestinal cavity was washed for once to twice.
3) The whole small intestine was quickly cut into 5 mm intestinal segments.
4) The intestinal segments were transferred to a 50 mL centrifugal tube, and 25 mL HBSS and 250 μL penicillin/streptomycin solution were added for incubation for 10 min at room temperature, and then the centrifugal tube was slightly inverted to mix evenly for 2-3 times.
5) Supernatant was absorbed, and 10 mL new HBSS was added to wash the intestinal segments for 2-3 times till the final intestinal segments were cleaned thoroughly, then a 70 μm filter sieve was used for filtering to retain the remaining intestinal segments.
6) The intestinal segments were transferred to a 50 mL centrifugal tube, and added to a 10 mL pre-blended digestive solution for incubation for 5 min at room temperature.
7) The centrifugal tube was shaken violently or swirled for several seconds, and then a 70 μm filter sieve was used for filtering.
8) The intestinal segments were transferred to a new 50 mL centrifugal tube, and a 10 mL digestive solution was added for incubation on ice for 30 min, and then the centrifugal tube was shaken violently or swirled for several seconds, and then a 70 μm filter sieve was used for filtering. A black 96-well plate was put on an incubator for preheating during the incubation on ice.
9) The intestinal segments were transferred to a new 50 mL centrifugal tube, and 10 mL HBSS was added, then the centrifugal tube was shaken violently or swirled for several seconds, and a 70 μm filter sieve was used for filtering to retain filtrate.
10) […] for 10 min at 4° C.
11) Supernatant was removed, and crypt cells were precipitated and resuspended by a crypt cell culture solution, and then cell counting was performed microscopically.
12) Cells were diluted by a ratio of the crypt cell culture solution to matrigel=1:1 (v/v), so as to ensure that per 10 μL of mixed liquor contained about 100 crypt cells.
13) The preheated black 96-well plate was taken out, and 10 μL mixed liquor was added to the center of each well, and then the well plate was put to an incubator for 10 min at 37° C.
14) After the matrigel was solidified, each medicament in Bioactive Compound Library (790 types) was diluted by a medium to a final concentration of 10 μM, and then 100 μL was added to per well.
15) The 96-well plate was put on a multi-mode microplate reader to read fluorescence intensity under the conditions of excitation wavelength at 485 nm and emission wavelength at 528 nm, and to record the values on the same day.
16) Crypt cells were irradiated with 10 Gy radiation, and the fluorescence intensity for consecutive 10 d after irradiation was recorded; afterwards, the background fluorescence intensity of a blank control was removed, and a fluorescence intensity curve was drawn; and the test results were shown in FIGS. 1-4.
Crypt stem cells Lgr5^+ separated from Lgr5-GFP mice in vivo carried GFP fluorescence, and the change of the mean fluorescence intensity (MFI) represented the proliferation of crypt stem cells Lgr5*. […]

SMILES	influence on the survival time of mice after receiving irradiation ([1]; dose not stated)	fold induction at 10 µM [2]	also measured
CN1CCCCC1CCN1c2ccccc2Sc2ccc([S+](C)[O-])cc21 (stereo not drawn) [Mesoridazine Besylate]	no statistical significance	4.2	–
C[n+]1ccccc1/C=N/O [Pralidoxime chloride]	–	4.8	–
N#C[C@@H]1C[C@@H]2C[C@@H]2N1C(=O)[C@@H](N)C12CC3CC(CC(O)(C3)C1)C2 [Saxagliptin hydrate]	no statistical significance	15.9	–
CCCOc1ccn2c(C(C)=O)cc(-c3ccccc3S(C)(=O)=O)c2c1 [GSK2801]	no statistical significance	14.7	–
C[C@H](CCC(=O)O)[C@H]1CC[C@H]2[C@@H]3C(=O)C[C@@H]4CC(=O)CC[C@]4(C)[C@H]3CC(=O)[C@]12C [Dehydrocholic acid]	–	3.4	survival time of the mice ([1]; 10 mg/kg i.p. half an hour before 10 Gy whole body irradiation): did not improve the survival time; survival time of the mice ([1]; 20 mg/kg i.p. half an hour before 10 Gy whole body irradiation): did not improve the survival time; extension of the death time of the mice ([1]; 40 mg/kg i.p. half an hour before 10 Gy whole body irradiation, P<0.01): 2 days; survival time of the mice ([1]; 60 mg/kg i.p. half an hour before 10 Gy whole body irradiation): did not improve the survival time; survival time of the mice ([1]; 80 mg/kg i.p. half an hour before 10 Gy whole body irradiation): did not improve the survival time; survival time of the mice ([1]; 100 mg/kg i.p. half an hour before 10 Gy whole body irradiation): did not improve the survival time
CCN(C)C(=O)Oc1cccc([C@H](C)N(C)C)c1 [Rivastigmine]	–	14.2	survival of mice after 30 d ([1]; 1 mg/kg i.p. before 10 Gy whole body irradiation): still survival mice after 30 d; survival of mice after 30 d ([1]; 2 mg/kg i.p. before 10 Gy whole body irradiation): still survival mice after 30 d; survival rate ([1]; 2 mg/kg i.p. before 10 Gy whole body irradiation, after 30 d, P<0.001 vs control group): greater than 40%; survival rate of the mice ([1]; intraperitoneally injected, 10 Gy whole body irradiation, 30 days post irradiation, dose not stated): greater than 40%
CC(C)(CO)C(O)C(=O)NCCCO (racemic) [DL-Panthenol]	no statistical significance	3.5	–
